One assay has as its target KDR kinase (Homo sapiens, UniProt P35968). Kind of assay: KDR AlphaScreen assay. To be noted: KDR IC50 (μM).
Another assay concerns the target Pim2 kinase (Homo sapiens, UniProt Q9P1W9). The assay is described as follows: Pim2 ATP depletion assay.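 As to all read-outs here: Luciferase-based luminescent readout of ATP remaining after PIM2 phosphorylates a BAD peptide, final 5 nM enzyme, 4 µM ATP, 10 µM peptide, 2.5% DMSO, run to roughly half ATP consumption.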 The class given is biochemical. To be noted: for IC50: read-out: IC50 (μM) PIM2; for pIC50: read-out: PIM2 IC50.
A further assay concerns the target Pim1 kinase (Homo sapiens, UniProt P11309). The assay is described as follows: Pim1 ATP depletion assay.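 As to all read-outs here: Luciferase-luciferin luminescence readout of residual ATP after PIM1 transfers phosphate to a peptide substrate, 40 µM ATP added, reaction run to roughly half ATP consumption.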 The class given is biochemical. To be noted: for IC50: read-out: IC50 (μM) PIM1.
The test system of assay [1] is MM1.s (human myeloma cell line). The assay is described as follows: Cell proliferation assay (CellTiter-Glo), MM1.s. The class given is cell-based. The following applies: MM1.s cells; for EC50: read-out: EC50 (μM) MM1.s; for pEC50: read-out: MM1.s EC50. As to the method: (§1) KMS 11 (human myeloma cell line), were cultured in IMDM supplemented with 10% FBS, sodium pyruvate and antibiotics. Cells were plated in the same medium at a density of 2000 cells per well into 96 well tissue culture plates, with outside wells vacant, on the day of assay. MM1.s (human myeloma cell line), were cultured in RPMI1640 supplemented with 10% FBS, sodium pyruvate and antibiotics. Cells were plated in the same medium at a density of 5000 cells per well into 96 well tissue culture plates, with outside wells vacant, on the day of assay.
(§2) Test compounds supplied in DMSO were diluted into DMSO at 500 times the desired final concentrations before dilution into culture media to 2 times final concentrations. Equal volumes of 2× compounds were added to the cells in 96 well plates and incubated at 37° C. for 3 days.
(§3) After 3 days plates were equilibrated to room temperature and equal volume of CellTiter-Glow Reagent (Promega) was added to the culture wells. The plates were agitated briefly and luminescent signal was measured with luminometer. The percent inhibition of the signal seen in cells treated with DMSO alone vs. cells treated with control compound was calculated and used to determine EC50 values (i.e., the concentration of a test compound that is required to obtain 50% of the maximum effect in the cells) for tested compounds, as shown in Example 763.

Assay [2] concerns KMS 11 (human myeloma cell line). The assay is described as follows: Cell proliferation assay (CellTiter-Glo), KMS 11. The class given is cell-based. The following applies: KMS11 cells; for EC50: read-out: EC50 (μM) KMS11; for pEC50: read-out: KMS11 EC50. As to the method: as §1, §2, §3
A further assay concerns the target Pim3 kinase (Homo sapiens, UniProt Q86V86). Kind of assay: Pim3 ATP depletion assay. The following applies: for IC50: read-out: IC50 (μM) PIM3; for pIC50: read-out: PIM3 IC50. The class given is biochemical.
[3] abbreviates: Pim1 ATP depletion assay, read-out: PIM1 IC50.

The text below walks through data of US20140249135A1, “PIM KINASE INHIBITORS AND METHODS OF THEIR USE” (NOVARTIS AG, priority 2007, published 2014).

SMILES strings stand for the structures. pEC50, pIC50: −log10 of the molar value. Like-named read-outs stand apart in the source and are kept apart here.

Pim2 kinase, sequence (Q9P1W9 whole entry): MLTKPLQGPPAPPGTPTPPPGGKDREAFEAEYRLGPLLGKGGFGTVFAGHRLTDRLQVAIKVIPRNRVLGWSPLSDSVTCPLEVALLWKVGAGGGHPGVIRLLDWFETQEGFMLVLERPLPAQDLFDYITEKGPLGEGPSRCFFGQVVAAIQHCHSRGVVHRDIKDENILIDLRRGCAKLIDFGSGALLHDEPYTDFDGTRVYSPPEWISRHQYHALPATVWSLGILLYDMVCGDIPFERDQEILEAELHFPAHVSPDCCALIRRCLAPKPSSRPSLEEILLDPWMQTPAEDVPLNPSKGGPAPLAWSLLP
Pim1 kinase, sequence (P11309 whole entry): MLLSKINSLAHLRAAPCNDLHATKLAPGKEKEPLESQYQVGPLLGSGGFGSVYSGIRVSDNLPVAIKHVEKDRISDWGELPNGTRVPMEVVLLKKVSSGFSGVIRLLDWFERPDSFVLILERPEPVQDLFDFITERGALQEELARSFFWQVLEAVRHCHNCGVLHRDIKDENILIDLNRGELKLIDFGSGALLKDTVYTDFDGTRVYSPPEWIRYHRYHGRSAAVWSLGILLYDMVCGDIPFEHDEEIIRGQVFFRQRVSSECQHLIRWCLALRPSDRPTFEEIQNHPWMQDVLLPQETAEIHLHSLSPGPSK
KDR kinase, sequence (P35968 20-1356): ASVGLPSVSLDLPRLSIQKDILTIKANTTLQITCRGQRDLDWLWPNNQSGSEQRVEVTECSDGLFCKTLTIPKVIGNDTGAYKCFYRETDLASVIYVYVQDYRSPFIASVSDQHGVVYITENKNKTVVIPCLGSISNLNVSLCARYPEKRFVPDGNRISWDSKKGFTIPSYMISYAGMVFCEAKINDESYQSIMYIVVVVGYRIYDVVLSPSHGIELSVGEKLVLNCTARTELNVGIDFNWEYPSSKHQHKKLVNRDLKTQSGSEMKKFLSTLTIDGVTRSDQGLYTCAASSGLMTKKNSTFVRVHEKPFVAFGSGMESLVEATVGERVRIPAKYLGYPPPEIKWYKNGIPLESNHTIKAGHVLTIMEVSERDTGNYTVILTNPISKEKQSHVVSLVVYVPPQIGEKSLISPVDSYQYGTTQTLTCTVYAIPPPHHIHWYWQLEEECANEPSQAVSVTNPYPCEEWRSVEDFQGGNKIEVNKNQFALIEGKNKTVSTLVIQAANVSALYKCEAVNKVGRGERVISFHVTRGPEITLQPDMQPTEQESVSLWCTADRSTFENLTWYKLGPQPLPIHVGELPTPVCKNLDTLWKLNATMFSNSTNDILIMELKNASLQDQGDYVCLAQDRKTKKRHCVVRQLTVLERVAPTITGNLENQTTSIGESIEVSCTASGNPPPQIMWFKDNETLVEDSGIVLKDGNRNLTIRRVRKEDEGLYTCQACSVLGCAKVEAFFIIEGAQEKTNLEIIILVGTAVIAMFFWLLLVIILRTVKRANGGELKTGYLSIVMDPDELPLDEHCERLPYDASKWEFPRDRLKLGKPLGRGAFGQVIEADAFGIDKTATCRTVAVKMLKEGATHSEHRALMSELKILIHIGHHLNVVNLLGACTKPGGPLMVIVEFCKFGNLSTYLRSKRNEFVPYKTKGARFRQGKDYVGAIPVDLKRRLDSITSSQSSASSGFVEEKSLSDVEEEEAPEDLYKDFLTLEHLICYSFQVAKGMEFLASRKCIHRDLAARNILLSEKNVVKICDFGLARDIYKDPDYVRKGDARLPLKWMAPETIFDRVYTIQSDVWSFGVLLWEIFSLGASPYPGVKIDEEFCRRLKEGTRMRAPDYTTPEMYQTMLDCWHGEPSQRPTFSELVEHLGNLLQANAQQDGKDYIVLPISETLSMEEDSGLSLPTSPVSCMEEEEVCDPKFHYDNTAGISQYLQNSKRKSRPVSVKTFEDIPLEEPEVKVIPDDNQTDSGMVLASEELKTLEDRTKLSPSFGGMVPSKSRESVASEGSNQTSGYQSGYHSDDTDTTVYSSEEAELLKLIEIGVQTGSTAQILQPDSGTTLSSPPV

Turning to `N[C@H]1CCCN(c2ccncc2NC(=O)c2cccc(-c3c(F)cccc3F)n2)C1` [Example 454, 6-(2,6-Difluoro-phenyl)-pyridine-2-carboxylic acid (3-amino-3,4,5,6-tetrahydro-2H-[1,4′]bi-pyridinyl-3′-yl)-amide], the IC50 on KDR kinase was 10 to 25 µM; at Pim2 kinase, less than 1 µM; on Pim1 kinase (Pim1 ATP depletion assay) it was less than 1 µM; on Pim3 kinase, less than 1 µM. Besides, the figures for the EC50 in assay [1] and in assay [2] were 5 to 10 µM and 1 to 5 µM, respectively.
In the case of `CC(C)Oc1ccc(F)c(-c2nc(C(=O)Nc3cnccc3N3CCC[C@H](N)C3)c(N)cc2F)c1F` [Example 496, 3-Amino-6-(2,6-difluoro-3-isopropoxy-phenyl)-5-fluoro-pyridine-2-carboxylic acid (3-amino-3,4,5,6-tetrahydro-2H-[1,4′]bipyridinyl-3′-yl)-amide], the IC50 at Pim2 kinase, on Pim1 kinase (Pim1 ATP depletion assay) and at Pim3 kinase was less than 1 µM in each case. Besides, the EC50 in assay [1] and in assay [2] was less than 1 µM in each case.
As to `Nc1cc(F)c(-c2c(F)cccc2F)nc1C(=O)Nc1cnccc1N1CCC[C@H](N)C1` [Example 516, 3-Amino-6-(2,6-difluoro-phenyl)-5-fluoro-pyridine-2-carboxylic acid (3-amino-3,4,5,6-tetrahydro-2H-[1,4′]bipyridinyl-3′-yl)-amide], the IC50 on Pim2 kinase, on Pim1 kinase (Pim1 ATP depletion assay) and at Pim3 kinase was less than 1 µM in each case. For the same compound, the EC50 in assay [1] and in assay [2] was less than 1 µM each time.
For `Nc1cc(F)c(-c2ccccc2F)nc1C(=O)Nc1cnccc1N1CCC[C@H](N)C1` [Example 517, 3-Amino-5-fluoro-6-(2-fluoro-phenyl)-pyridine-2-carboxylic acid (3-amino-3,4,5,6-tetrahydro-2H-[1,4′]bipyridinyl-3′-yl)-amide], the IC50 on Pim2 kinase, on Pim1 kinase (Pim1 ATP depletion assay) and at Pim3 kinase was less than 1 µM throughout. For the same compound, the EC50 in assay [1] and in assay [2] was 1 to 5 µM in each case.
Regarding `COCCOc1nc(-c2ccc(N)c(C(=O)Nc3cnccc3N3CCC[C@H](N)C3)n2)cnc1N` [Example 520, 3-Amino-6-[5-amino-6-(2-methoxy-ethoxy)-pyrazin-2-yl]-pyridine-2-carboxylic acid (3-amino-3,4,5,6-tetrahydro-2H-[1,4′]bipyridinyl-3′-yl)-amide], the IC50 on KDR kinase is 1 to 10 µM; on Pim2 kinase, less than 1 µM; at Pim1 kinase (Pim1 ATP depletion assay), less than 1 µM; on Pim3 kinase, less than 1 µM. The EC50 in assay [1] and in assay [2] was 5 to 10 µM throughout.
For `N[C@H]1CCCN(c2ccncc2NC(=O)c2nc(-c3c(F)cccc3F)ccc2F)C1` [Example 570, 6-(2,6-Difluoro-phenyl)-3-fluoro-pyridine-2-carboxylic acid (3-amino-3,4,5,6-tetrahydro-2H-[1,4′]bipyridinyl-3′-yl)-amide], the pIC50 on Pim2 kinase, at Pim1 kinase (setting [3]) and at Pim3 kinase was more than 6.00 each time. The pEC50 in assay [1] and in assay [2] was 5.30 to 6.00 in each case.
For the compound `CCCOc1ccc(F)c(-c2ccc(N)c(C(=O)Nc3cnccc3N3C[C@@H](N)C[C@@H](F)C3)n2)c1` [Example 577, 3-Amino-6-(2-fluoro-5-propoxy-phenyl)-pyridine-2-carboxylic acid (3-amino-5-fluoro-3,4,5,6-tetrahydro-2H-[1,4′]bipyridinyl-3′-yl)-amide], the pIC50 on Pim2 kinase, on Pim1 kinase (setting [3]) and on Pim3 kinase was more than 6.00 each time. In addition, the pEC50 in assay [1] and in assay [2] was 5.30 to 6.00 each time.
In the case of `CCCOc1ccc(F)c(-c2ccc(N)c(C(=O)Nc3cnccc3N3C[C@@H](N)C[C@@H](OC)C3)n2)c1` [Example 579, 3-Amino-6-(2-fluoro-5-propoxy-phenyl)-pyridine-2-carboxylic acid (3-amino-5-methoxy-3,4,5,6-tetrahydro-2H-[1,4′]bi-pyridinyl-3′-yl)-amide], the pIC50 on Pim2 kinase, at Pim1 kinase (setting [3]) and on Pim3 kinase was more than 6.00 each time. Moreover, the pEC50 is 5.30 to 6.00 in assay [1] and more than 6.00 in assay [2].
With `CO[C@@H]1C[C@H](N)CN(c2ccncc2NC(=O)c2nc(-c3ccccc3)ccc2N)C1` [Example 580, 3-Amino-6-phenyl-pyridine-2-carboxylic acid (3-amino-5-methoxy-3,4,5,6-tetrahydro-2H-[1,4′]bipyridinyl-3′-yl)-amide], the pIC50 on Pim2 kinase, at Pim1 kinase (setting [3]) and on Pim3 kinase was more than 6.00 each time. Further, the pEC50 in assay [1] and in assay [2] was 5.30 to 6.00 throughout.
Regarding `Nc1ccc(-c2c(F)cccc2F)nc1C(=O)Nc1cnccc1N1CC[C@@H](O)[C@H](N)C1` [Example 679, 3-Amino-6-(2,6-difluoro-phenyl)-pyridine-2-carboxylic acid (3-amino-4-hydroxy-3,4,5,6-tetrahydro-2H-[1,4′]bi-pyridinyl-3′-yl)-amide], the pIC50 at Pim2 kinase, against Pim1 kinase and on Pim3 kinase was more than 6.00 each time. For the same compound, the negative logarithm of the EC50 (pEC50) in assay [1] is more than 6.00; in assay [2], 5.30 to 6.00.
Regarding `N[C@@H]1CN(c2ccncc2NC(=O)c2ccc(F)c(-c3c(F)cccc3F)n2)CC[C@H]1O` [Example 683, 6-(2,6-Difluoro-phenyl)-5-fluoro-pyridine-2-carboxylic acid (3-amino-4-hydroxy-3,4,5,6-tetrahydro-2H-[1,4′]bi-pyridinyl-3′-yl)-amide], the pIC50 at Pim2 kinase, on Pim1 kinase (setting [3]) and on Pim3 kinase was more than 6.00 in each case. Besides, the negative logarithm of the EC50 (pEC50) in assay [1] was 5.30 to 6.00; in assay [2] it was more than 6.00.
Take `Nc1ccc(-c2ncccc2F)nc1C(=O)Nc1cnccc1N1CCC[C@H](N)C1` [Example 702, 5-Amino-3′-fluoro-[2,2′]bi-pyridinyl-6-carboxylic acid (3-amino-3,4,5,6-tetrahydro-2H-[1,4′]bipyridinyl-3′-yl)-amide]: the pIC50 at Pim2 kinase, at Pim1 kinase (setting [3]) and on Pim3 kinase was more than 6.00 in each case. In addition, the pEC50 in assay [1] and in assay [2] was 5.30 to 6.00 in each case.
With `CC(C)NC(=O)c1ccc(F)c(-c2nc(C(=O)Nc3cnccc3N3CCC[C@H](N)C3)c(N)cc2F)c1F` [Example 736, 3-Amino-6-(2,6-difluoro-3-isopropylcarbamoyl-phenyl)-5-fluoro-pyridine-2-carboxylic acid (3-amino-3,4,5,6-tetra-hydro-2H-[1,4′]bipyridinyl-3′-yl)-amide], the negative logarithm of the IC50 (pIC50) on Pim2 kinase, at Pim1 kinase (setting [3]) and on Pim3 kinase was more than 6.00 each time. In addition, the results for the pEC50 in assay [1] and in assay [2] were 5.30 to 6.00 and more than 6.00, respectively.
Regarding `Nc1cc(F)c(-c2ncccc2F)nc1C(=O)Nc1cnccc1N1CCC[C@H](N)C1` [Example 744, 5-Amino-3,3′-difluoro-[2,2′]bi-pyridinyl-6-carboxylic acid (3-amino-3,4,5,6-tetrahydro-2H-[1,4′]bipyridinyl-3′-yl)-amide], the pIC50 on Pim2 kinase, on Pim1 kinase (setting [3]) and at Pim3 kinase was more than 6.00 each time. Besides, the pEC50 in assay [1] and in assay [2] was 5.30 to 6.00 throughout.
As for `CC(C)NC(=O)c1ccc(F)c(-c2ccc(N)c(C(=O)Nc3cnccc3N3CC[C@H](O)[C@H](N)C3)n2)c1` [Example 753, 3-Amino-6-(2-fluoro-5-isopropyl-carbamoyl-phenyl)-pyridine-2-carboxylic acid (3-amino-4-hydroxy-3,4,5,6-tetrahydro-2H-[1,4′]bipyridinyl-3′-yl)-amide], the pIC50 at Pim2 kinase, on Pim1 kinase (setting [3]) and at Pim3 kinase was more than 6.00 each time. Also, the pEC50 in assay [1] is more than 6.00; in assay [2] it was 5.30 to 6.00.
Turning to `Nc1ccc(-c2c(F)cccc2F)nc1C(=O)Nc1cnccc1N1CC[C@H](O)[C@H](N)C1` [Example 754, 3-Amino-6-(2,6-difluoro-phenyl)-pyridine-2-carboxylic acid (3-amino-4-hydroxy-3,4,5,6-tetra-hydro-2H-[1,4′]bipyridinyl-3′-yl)-amide], the pIC50 at Pim2 kinase, against Pim1 kinase and on Pim3 kinase was more than 6.00 throughout. The pEC50 in assay [1] was 5.30 to 6.00; in assay [2], more than 6.00.
